Source: patent US11572590B2, “Methods for evaluating tumor cell spheroids using 3D microfluidic cell culture device” (Dana-Farber Cancer Institute, Inc., priority 2017, dated 2023)
Like-named read-outs stand apart in the source and are kept apart here.

Tests used:
[1] = target: T1, off-target kinases (Homo sapiens, UniProt P54762); assay: SelectScreen Kinase Profiling, single point inhibition and IC50 for off-target kinases; format: biochemical; details: EPHB1, ZLYTE, ATP Km app
T1 sequence (P54762 18-984): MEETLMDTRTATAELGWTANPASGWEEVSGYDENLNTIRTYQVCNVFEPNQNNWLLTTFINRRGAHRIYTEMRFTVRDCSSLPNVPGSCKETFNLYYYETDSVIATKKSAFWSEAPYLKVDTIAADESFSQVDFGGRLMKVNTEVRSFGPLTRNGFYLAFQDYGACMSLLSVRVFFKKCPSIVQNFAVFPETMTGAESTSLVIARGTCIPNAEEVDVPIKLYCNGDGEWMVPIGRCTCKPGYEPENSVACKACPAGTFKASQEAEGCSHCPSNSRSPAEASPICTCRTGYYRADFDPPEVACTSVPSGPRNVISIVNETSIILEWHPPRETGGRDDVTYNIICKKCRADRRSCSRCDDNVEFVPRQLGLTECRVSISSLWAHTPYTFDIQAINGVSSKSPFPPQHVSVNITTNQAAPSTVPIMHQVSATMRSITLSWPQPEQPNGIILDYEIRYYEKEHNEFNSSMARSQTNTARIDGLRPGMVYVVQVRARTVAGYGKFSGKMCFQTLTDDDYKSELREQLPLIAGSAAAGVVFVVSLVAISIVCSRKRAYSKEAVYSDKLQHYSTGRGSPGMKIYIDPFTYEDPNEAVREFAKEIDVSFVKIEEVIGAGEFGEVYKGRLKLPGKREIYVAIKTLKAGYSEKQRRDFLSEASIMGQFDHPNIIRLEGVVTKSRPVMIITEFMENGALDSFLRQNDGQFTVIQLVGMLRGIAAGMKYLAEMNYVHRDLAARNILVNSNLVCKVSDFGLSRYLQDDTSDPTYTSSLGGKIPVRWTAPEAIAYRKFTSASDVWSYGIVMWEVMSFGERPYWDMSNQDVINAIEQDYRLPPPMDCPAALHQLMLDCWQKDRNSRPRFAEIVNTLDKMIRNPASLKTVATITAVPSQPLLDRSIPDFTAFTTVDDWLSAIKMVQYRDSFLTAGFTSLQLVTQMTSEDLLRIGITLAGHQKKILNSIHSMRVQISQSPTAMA

[2] = target: T2, off-target kinases (Homo sapiens, UniProt Q8WTQ7); assay: as above; format: biochemical; details: GRK7, ZLYTE, ATP Km app
T2 sequence (Q8WTQ7 1-553): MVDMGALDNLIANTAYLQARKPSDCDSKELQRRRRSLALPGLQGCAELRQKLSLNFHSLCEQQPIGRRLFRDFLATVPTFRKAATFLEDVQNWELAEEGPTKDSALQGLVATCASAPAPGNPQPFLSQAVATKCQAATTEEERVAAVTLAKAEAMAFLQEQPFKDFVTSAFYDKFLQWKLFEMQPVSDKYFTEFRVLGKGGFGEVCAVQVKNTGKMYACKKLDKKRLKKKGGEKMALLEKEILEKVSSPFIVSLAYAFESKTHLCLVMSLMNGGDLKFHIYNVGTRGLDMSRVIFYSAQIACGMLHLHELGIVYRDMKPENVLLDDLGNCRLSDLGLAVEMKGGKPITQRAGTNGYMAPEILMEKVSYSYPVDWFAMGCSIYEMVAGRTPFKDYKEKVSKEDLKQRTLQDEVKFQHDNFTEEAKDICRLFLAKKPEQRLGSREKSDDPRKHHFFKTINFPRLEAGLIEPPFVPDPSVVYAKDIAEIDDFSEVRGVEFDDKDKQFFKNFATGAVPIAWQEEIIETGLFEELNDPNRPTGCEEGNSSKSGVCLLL

## N#Cc1cc(-c2ncnc(Nc3ccc(N4CCN(C5COC5)CC4)cc3)n2)ccc1OC1CCOCC1 [Compound 1, 5-(4-((4-(4-(oxetan-3-yl)piperazin-1-yl)phenyl)amino)-1,3,5-triazin-2-yl)-2-((tetrahydro-2H-pyran-4-yl)oxy)benzonitrile]
[1]; read-out: % Inhibition 1
  inhibition: 34%
[1]; read-out: % Inhibition 2
  inhibition: 31%
[1]; read-out: % Inhibition Avg
  inhibition: 33%
[2]; read-out: % Inhibition 1
  inhibition: 3%
[2]; read-out: % Inhibition 2
  inhibition: 5%
[2]; read-out: % Inhibition Avg
  inhibition: 4%
